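Exposure lasted 48 hours, with cells grown in 96-well plates and compounds tested at five concentrations. GI50: concentration for 50% inhibition of growth. TGI: concentration producing complete growth inhibition.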

For 15 compounds, TGI and GI50 results are on record in PubChem BioAssay (NCI).

Among the test systems are SK-MEL-5 melanoma; HOP-62 NSCLC; MDA-MB-231 breast; NCI-H522 lung; EKVX NSCLC; SNB-75 CNS; SF-295 CNS; NCI/ADR-RES ovarian; A549 NSCLC; TK-10 renal.
What all share (test): NCI tumour cell line growth inhibition, 48 h

For `Cn1c(SCc2ccc([N+](=O)[O-])cc2)nnc1C12CC3CC(CC(C3)C1)C2`, the TGI in the experiment on SK-MEL-5 melanoma, in the experiment on HOP-62 NSCLC, in the experiment on MDA-MB-231 breast, in the experiment on NCI-H522 lung, in the experiment on EKVX NSCLC and with SNB-75 CNS was more than 10 µM each time. Besides, the TGI in the experiment on SF-295 CNS, in the experiment with NCI/ADR-RES ovarian and with A549 NSCLC was more than 10 µM throughout.

In the case of `N#Cc1ccccc1C#C/C=C\C#Cc1ccccn1`, the TGI with SK-MEL-5 melanoma was found to be 12.9 µM; in the experiment on HOP-62 NSCLC, 41.4 µM; with NCI-H522 lung, 36.7 µM; in the experiment with EKVX NSCLC, 57.7 µM; with SNB-75 CNS, 67.6 µM; in the experiment on TK-10 renal it was 96.2 µM. Further, the TGI in the experiment with SF-295 CNS was found to be 52.7 µM; in the experiment on NCI/ADR-RES ovarian, 34.3 µM; in the experiment on A549 NSCLC, 56.5 µM.

`O=C1C2=C(c3ccccc31)C(c1ccc([N+](=O)[O-])cc1)NC(=S)N2` (centres undefined): the TGI with SK-MEL-5 melanoma was more than 100 µM; in the experiment with HOP-62 NSCLC, more than 100 µM; with NCI-H522 lung, more than 100 µM; with EKVX NSCLC it was more than 100 µM; in the experiment on SNB-75 CNS, 98.6 µM; in the experiment on TK-10 renal, more than 100 µM. The TGI in the experiment on SF-295 CNS and in the experiment with A549 NSCLC was more than 100 µM in each case.

Turning to `Cc1ccc(C2=C(c3ccccc3)C(O)(c3ccccc3)C(c3ccccc3)=C2c2ccc(C)cc2)cc1`, the TGI in the experiment with SK-MEL-5 melanoma, with HOP-62 NSCLC, in the experiment on NCI-H522 lung, in the experiment on EKVX NSCLC, in the experiment on SNB-75 CNS and with TK-10 renal was more than 100 µM in each case. Moreover, the TGI in the experiment on SF-295 CNS and in the experiment with A549 NSCLC was more than 100 µM each time.

For the compound `O=C(N/N=C/c1ccc(O)cc1)NNCCO`, the TGI in the experiment on SK-MEL-5 melanoma, with HOP-62 NSCLC, with MDA-MB-231 breast, in the experiment with NCI-H522 lung, in the experiment on SNB-75 CNS and in the experiment on TK-10 renal was more than 100 µM throughout. Also, the TGI in the experiment with SF-295 CNS, in the experiment with NCI/ADR-RES ovarian and with A549 NSCLC was more than 100 µM in each case.

For `CC(C)C(N=C1CC2CCC1(C(=O)Nc1ccccc1O)C2(C)C)c1ccccc1` (centres undefined), the TGI with SK-MEL-5 melanoma, in the experiment with HOP-62 NSCLC, with NCI-H522 lung, in the experiment with EKVX NSCLC, in the experiment on SNB-75 CNS and with TK-10 renal was more than 10 µM throughout. The TGI in the experiment with SF-295 CNS and in the experiment with A549 NSCLC was more than 10 µM throughout.

For `CN(C)CC(O)CNC(=O)Nc1ccccc1` (centres undefined), the TGI in the experiment with SK-MEL-5 melanoma, with HOP-62 NSCLC, in the experiment with MDA-MB-231 breast, in the experiment on EKVX NSCLC, with SNB-75 CNS and in the experiment on TK-10 renal was more than 100 µM in each case. Moreover, the TGI in the experiment on SF-295 CNS, in the experiment on NCI/ADR-RES ovarian and in the experiment with A549 NSCLC was more than 100 µM in each case.

On to `O/N=C1/C(=C/c2ccc(Br)cc2)CCCC1C(NO)c1ccc(Br)cc1` (centres undefined), for which the TGI is 32.9 µM in the experiment with NCI-H522 lung; 36.4 µM in the experiment with SNB-75 CNS; 33 µM with TK-10 renal; 30.4 µM in the experiment with SF-295 CNS; 32.1 µM in the experiment with A549 NSCLC.

With `CC(=O)Nc1ccc(S(=O)(=O)Nc2cnc3ccccc3n2)cc1`, the TGI in the experiment on SK-MEL-5 melanoma, with HOP-62 NSCLC, in the experiment with NCI-H522 lung, with EKVX NSCLC, in the experiment on SNB-75 CNS and with TK-10 renal was more than 100 µM each time. For the same compound, the TGI in the experiment with SF-295 CNS and with A549 NSCLC was more than 100 µM throughout.

In the case of `Nc1nc(Cl)cc(OCC2(CO)CCCCC2)n1`, the TGI with SK-MEL-5 melanoma, with HOP-62 NSCLC, with NCI-H522 lung, in the experiment on EKVX NSCLC, in the experiment with SNB-75 CNS and in the experiment on TK-10 renal was more than 100 µM each time. For the same compound, the TGI with SF-295 CNS, in the experiment on NCI/ADR-RES ovarian and in the experiment with A549 NSCLC was more than 100 µM in each case.

Turning to `c1ccc(C2SCc3nc4ccccc4n32)cc1` (centres undefined), the TGI in the experiment with SK-MEL-5 melanoma was 56.4 µM; in the experiment with HOP-62 NSCLC, more than 100 µM; with NCI-H522 lung, 77.8 µM; in the experiment with EKVX NSCLC, more than 100 µM; in the experiment with SNB-75 CNS, 69.8 µM; in the experiment on TK-10 renal, more than 100 µM. For the same compound, the TGI in the experiment on SF-295 CNS and with A549 NSCLC was more than 100 µM each time.

With `C=c1c2ccccc2oc2nc3[nH]c(N)c(C#N)c(N)c3c(=N)c12`, the TGI in the experiment on SK-MEL-5 melanoma was 57.2 µM; with HOP-62 NSCLC, more than 100 µM; in the experiment with MDA-MB-231 breast, more than 100 µM; in the experiment with EKVX NSCLC, 73 µM; in the experiment with SNB-75 CNS, 90.3 µM; in the experiment with TK-10 renal, more than 100 µM. For the same compound, the TGI with SF-295 CNS, in the experiment on NCI/ADR-RES ovarian and in the experiment on A549 NSCLC was more than 100 µM throughout.

For the compound `N#Cc1cc([N+](=O)[O-])ccc1NC(=O)C(=O)Nn1c(=S)[nH]c2ccccc2c1=O`, the TGI in the experiment on SK-MEL-5 melanoma, with HOP-62 NSCLC, in the experiment on NCI-H522 lung, with EKVX NSCLC, in the experiment on SNB-75 CNS and in the experiment on TK-10 renal was more than 100 µM each time. The TGI in the experiment on SF-295 CNS and with A549 NSCLC was more than 100 µM throughout.

`CCOC(=O)C1=C(C)NC(c2ccccc2)=C(C(=O)OCc2ccccc2)C1C#Cc1ccccc1` (centres undefined): the TGI in the experiment with SK-MEL-5 melanoma, in the experiment with HOP-62 NSCLC, with EKVX NSCLC, in the experiment on SNB-75 CNS, in the experiment on TK-10 renal and in the experiment on SF-295 CNS was more than 100 µM each time. In addition, the TGI with NCI/ADR-RES ovarian was more than 100 µM.

Take `COc1ccc(CNCCN2C(=O)c3ccc4c5c(ccc(c35)C2=O)C(=O)N(CCNCc2ccc(OC)c(OC)c2OC)C4=O)c(OC)c1OC`: the GI50 in the experiment with SK-MEL-5 melanoma was 0.48 µM; with HOP-62 NSCLC it was 0.248 µM; with MDA-MB-231 breast, 0.239 µM; in the experiment with NCI-H522 lung, 0.519 µM; in the experiment with SNB-75 CNS it was 0.903 µM. Also, the TGI in the experiment on SK-MEL-5 melanoma stood at 1.09 µM; with HOP-62 NSCLC, 1.08 µM; in the experiment with MDA-MB-231 breast it was 2.37 µM; in the experiment on NCI-H522 lung, 1.19 µM; with SNB-75 CNS it was 2.09 µM.
